Measured values: PMC5715595 (British Journal of Pharmacology, 2017)
Like-named read-outs stand apart in the source and are kept apart here.

Tests used:
anaesthetized rabbits = test system: anaesthetized rabbits
Method: All the other experimental groups were 100% female. Animals were anaesthetized with sodium pentobarbital (45–60 mg·kg^−1 i.v.), maintained on a heated pad and mechanically ventilated with room air. […] A fluid‐filled catheter was inserted into the carotid artery to measure systemic arterial blood pressure and for blood sampling. A venous catheter was implanted into the jugular vein for infusion of drugs. Standard surface ECG leads I, II and III were monitored continuously to measure ECG intervals and the occurrence of ventricular tachyarrhythmia. Measurements of arterial blood pressures were calculated over 30 s duration at baseline and every 5 min. […] Then, for all determinations, the means of 10–30 consecutive sinus beats were automatically calculated at each time point (i.e. at the end of the stabilization period and then every 5 until 60 min after starting drug infusion) or until the occurrence of premature ventricular beats. Parameters recorded were systolic, diastolic and mean arterial blood pressure (mmHg), heart rate (beats·min^‐1 calculated from RR interval) as well as PR, QRS and QT/QTU intervals (ms), amplitudes of T‐wave and U‐wave (mV) and rhythm disturbances retrieved from ECG signals. […] Arrhythmia were scored according to the following scale: 0 being no arrhythmia, 1 being premature beats, 2 being auriculo‐ventricular blocks, 3 being ventricular tachycardia and 4 being TdP; and scores correspond to the average of maximal life‐threatening arrhythmias recorded during the experiment. […] Haemodynamic and ECG recordings were monitored continuously over 60 min following the start of infusion.

α2A‐adrenoceptor = α2A‐adrenoceptor (Homo sapiens, UniProt P08913); experiment: Affinity at α2A-adrenoceptor; type: binding
Chain of α2A‐adrenoceptor (P08913 whole entry): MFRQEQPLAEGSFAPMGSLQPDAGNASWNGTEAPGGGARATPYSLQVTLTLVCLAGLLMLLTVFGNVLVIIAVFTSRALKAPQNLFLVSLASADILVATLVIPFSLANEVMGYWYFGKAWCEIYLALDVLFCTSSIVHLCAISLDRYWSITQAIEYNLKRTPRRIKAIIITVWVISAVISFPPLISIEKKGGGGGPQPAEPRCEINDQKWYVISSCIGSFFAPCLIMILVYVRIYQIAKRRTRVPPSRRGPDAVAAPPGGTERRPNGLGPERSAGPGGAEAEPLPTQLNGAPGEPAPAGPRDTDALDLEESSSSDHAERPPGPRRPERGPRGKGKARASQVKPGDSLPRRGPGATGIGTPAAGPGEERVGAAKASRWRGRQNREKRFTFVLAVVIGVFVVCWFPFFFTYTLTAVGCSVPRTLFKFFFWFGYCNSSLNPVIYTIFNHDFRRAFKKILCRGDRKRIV

KV4.3 = target: T1, KV4.3 (Homo sapiens, UniProt Q9UK17); experiment: Whole-cell patch clamp on KV4.3 (Ito); type: cell-based
T1 construct: expressed in transfected cells
T1 sequence (Q9UK17 1-655): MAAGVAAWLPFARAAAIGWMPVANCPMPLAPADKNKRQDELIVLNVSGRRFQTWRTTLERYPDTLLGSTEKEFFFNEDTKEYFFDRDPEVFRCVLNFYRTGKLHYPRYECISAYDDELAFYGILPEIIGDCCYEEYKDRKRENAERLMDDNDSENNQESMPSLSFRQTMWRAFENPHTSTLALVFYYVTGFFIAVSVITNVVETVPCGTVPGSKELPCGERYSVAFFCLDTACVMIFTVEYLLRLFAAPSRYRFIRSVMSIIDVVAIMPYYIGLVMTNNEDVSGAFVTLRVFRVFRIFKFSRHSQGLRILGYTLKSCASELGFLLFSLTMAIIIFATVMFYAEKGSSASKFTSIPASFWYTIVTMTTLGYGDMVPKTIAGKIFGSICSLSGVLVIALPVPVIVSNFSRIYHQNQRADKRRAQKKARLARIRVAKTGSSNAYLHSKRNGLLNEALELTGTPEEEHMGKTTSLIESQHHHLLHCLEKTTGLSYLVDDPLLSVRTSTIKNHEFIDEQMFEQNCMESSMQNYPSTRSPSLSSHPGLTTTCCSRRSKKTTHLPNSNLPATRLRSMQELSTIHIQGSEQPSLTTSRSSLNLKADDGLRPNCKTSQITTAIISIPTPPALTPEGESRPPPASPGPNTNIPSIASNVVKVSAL
Method: (§1) and CiPA Initiative Studies
(§2) =============================================================
(§3) In vitro studies on other ion channels […]
(§4) through NaV1.5, KV4.3, KV7.1/mink, Kir2.1, KV1.5, CaV1.2 and CaV3.2 channels.
(§5) 35-mm dish culture in the conditions mentioned in standard cell culture conditions. Experiments were performed with a cell density enabling isolated cells for patch clamping. Cells were continuously superfused with extracellular medium (1-2 mL∙minute-1) at room temperature.
(§6) D-glucose 10, HEPES 10 and the final pH adjusted to 7.4±0.02 with NaOH for recording NaV1.5, KV4.3, KV7.1/mink, Kir2.1, KV1.5 and CaV3.2 currents. It was (in mM): NaCl 110, KCl 4, BaCl2 20, MgCl2 1, D-glucose 20, HEPES 10 and the final pH adjusted to 7.4 ± 0.02 with NaOH for recording the CaV1.2 current. Compositions of the intracellular solution to fill the pipette are […]
(§7) Composition of intracellular solutions used to fill pipette to record currents through NaV1.5, KV4.3, KV7.1/mink, Kir2.1, KV1.5, CaV1.2 and CaV3.2 channels
(§8) Solution to fill the pipette (mM)
(§9) Creatine-phospho kinase 50 U∙mL-1
(§10) After formation of a Gigaohm seal between the patch electrodes and individual cells (pipette resistance range: 2.0 MΩ - 7.0 MΩ; seal resistance range: > 1 GΩ) the cell membrane across the pipette tip was ruptured to assure electrical access to the cell interior (whole-cell patch-configuration). In case the quality of the seal was poor, the process of seal formation was repeated with a different cell and a new pipette. As soon as a stable seal was established outward tail currents were measured upon pulses described in the Table S2. If current density was judged to be too low for measurement, another cell was recorded. […]
(§11) voltage stimulation protocol indicated in the next table continuously run until the steady-state level of block was reached.
(§12) Stimulation conditions used to record currents through NaV1.5, KV4.3, KV7.1/mink, Kir2.1, KV1.5, CaV1.2 and CaV3.2 channels
(§13) Ion channel Holding potential Pulse / duration Frequency Reference compound […]
(§14) (resting / fast / slow sweeps at one (10 mM) inactivated concentration)

KV1.5 = target: T2, KV1.5 (Homo sapiens, UniProt P22460); experiment: Whole-cell patch clamp on KV1.5 (IKur); type: cell-based
T2 construct: expressed in transfected cells
T2 sequence (P22460 whole entry): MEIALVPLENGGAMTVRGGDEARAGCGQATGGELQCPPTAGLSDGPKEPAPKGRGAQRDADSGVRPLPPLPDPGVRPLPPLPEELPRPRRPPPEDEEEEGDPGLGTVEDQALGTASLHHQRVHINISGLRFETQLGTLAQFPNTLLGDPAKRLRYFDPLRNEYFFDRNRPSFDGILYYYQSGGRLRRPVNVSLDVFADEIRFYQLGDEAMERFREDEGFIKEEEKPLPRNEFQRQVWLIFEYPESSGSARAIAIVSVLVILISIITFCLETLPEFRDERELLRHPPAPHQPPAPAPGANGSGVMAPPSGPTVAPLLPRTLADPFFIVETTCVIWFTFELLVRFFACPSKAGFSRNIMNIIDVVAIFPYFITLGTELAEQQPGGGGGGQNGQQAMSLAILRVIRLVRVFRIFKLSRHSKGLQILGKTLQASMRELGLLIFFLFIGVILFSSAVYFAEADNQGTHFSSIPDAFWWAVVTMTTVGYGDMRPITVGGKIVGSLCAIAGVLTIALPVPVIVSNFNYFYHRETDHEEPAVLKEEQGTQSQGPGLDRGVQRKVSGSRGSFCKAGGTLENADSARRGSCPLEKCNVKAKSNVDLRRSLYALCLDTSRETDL
Method: as §1, §2, §3, §4, §5, §6, §7, §8, §9, §10, §11, §12, §13, §14

[1] = cumulative i.v. infusion 1, 3.3 and 10 mg·kg^−1 in successive 20 min steps

Cl.Clc1ccc(CCCOCCCN2CCCCC2)cc1 [pitolisant, 1‐{3‐[3‐(4‐chlorophenyl)propoxy]propyl}piperidine, hydrochloride]
QTc interval (ms) (mean ± SEM) (anaesthetized rabbits; 1 mg·kg^−1 infused over 1 h, 10 min into infusion): 154 ± 2 ms
QTc interval (ms) (mean ± SEM) (anaesthetized rabbits; 1 mg·kg^−1 infused over 1 h, 20 min into infusion): 156 ± 2 ms
QTc interval (ms) (mean ± SEM) (anaesthetized rabbits; 1 mg·kg^−1 infused over 1 h, 30 min into infusion): 156 ± 2 ms
QTc interval (ms) (mean ± SEM) (anaesthetized rabbits; 1 mg·kg^−1 infused over 1 h, 40 min into infusion): 156 ± 2 ms
QTc interval (ms) (mean ± SEM) (anaesthetized rabbits; 1 mg·kg^−1 infused over 1 h, 50 min into infusion): 157 ± 2 ms
QTc interval (ms) (mean ± SEM) (anaesthetized rabbits; 1 mg·kg^−1 infused over 1 h, 60 min into infusion): 157 ± 3 ms
QTc interval (ms) (mean ± SEM) (anaesthetized rabbits; 1 mg·kg^−1 infused over 1 h, baseline): 152 ± 3 ms
QTc interval (ms) (mean ± SEM) (anaesthetized rabbits; 10 mg·kg^−1 dose range (successively over 20 min at 1, 3.3 and 10 mg·kg^−1), 10 min into infusion): 148 ± 3 ms
QTc interval (ms) (mean ± SEM) (anaesthetized rabbits; 10 mg·kg^−1 dose range (successively over 20 min at 1, 3.3 and 10 mg·kg^−1), 20 min into infusion): 149 ± 2 ms
QTc interval (ms) (mean ± SEM) (anaesthetized rabbits; 10 mg·kg^−1 dose range (successively over 20 min at 1, 3.3 and 10 mg·kg^−1), 30 min into infusion): 151 ± 2 ms
QTc interval (ms) (mean ± SEM) (anaesthetized rabbits; 10 mg·kg^−1 dose range (successively over 20 min at 1, 3.3 and 10 mg·kg^−1), 40 min into infusion): 151 ± 1 ms
QTc interval (ms) (mean ± SEM) (anaesthetized rabbits; 10 mg·kg^−1 dose range (successively over 20 min at 1, 3.3 and 10 mg·kg^−1), 50 min into infusion): 148 ± 4 ms
QTc interval (ms) (mean ± SEM) (anaesthetized rabbits; 10 mg·kg^−1 dose range (successively over 20 min at 1, 3.3 and 10 mg·kg^−1), 60 min into infusion): 147 ± 2 ms
QTc interval (ms) (mean ± SEM) (anaesthetized rabbits; 10 mg·kg^−1 dose range (successively over 20 min at 1, 3.3 and 10 mg·kg^−1), baseline): 144 ± 4 ms
free drug concentration (anaesthetized rabbits; cumulative i.v. infusion 1, 3.3 and 10 mg·kg^−1, from total 13.8 μM): ~ 0.55 μM
change in QTc interval vs. baseline (anaesthetized rabbits; [1]): 2 ± 1%
decrease in heart rate (anaesthetized rabbits; [1]): 17 ± 4%
maximal total drug exposure (anaesthetized rabbits; [1]): 4140 ± 450 ng/mL
total drug concentration (anaesthetized rabbits; [1]): 13.8 ± 1.5 µM
effect on ventricular premature beats, ventricular tachycardia and TdP induced by clofilium (1 mg·kg^−1) (anaesthetized rabbits; pitolisant 10 mg·kg^−1): abolished
change in QTc interval (anaesthetized rabbits; pitolisant single dose 1 mg·kg^−1 i.v. over 60 min): +3 ± 1%
ventricular arrhythmias (anaesthetized rabbits; up to 10 mg·kg^−1 by i.v. slow infusion): never observed
Ki (α2A‐adrenoceptor): 2900 nM
IC50 (KV4.3; KV4.3 Ito, Hill curve fit with Hill coefficient of one, read-out: Fitted IC50): 11.4 µM
IC50 (KV4.3; Pitolisant IC50, KV4.3, Ito): ~10 µM
IC50 (KV1.5; KV1.5 IKur, Hill curve fit with Hill coefficient of one, read-out: Fitted IC50): 13.8 µM
IC50 (KV1.5; Pitolisant IC50, KV1.5, IKur): ≥ 10 µM
